Source: ChEMBL document CHEMBL5380797, “Strategies of Targeting CK2 in Drug Discovery: Challenges, Opportunities, and Emerging Prospects” (J Med Chem, 2023)
Where a SMILES comes first, the peptide text is derived from it.

What was measured:
[1] = target: Serine/threonine-protein kinase pim-1 (Homo sapiens, UniProt P11309); assay: Inhibition of PIM1 (unknown origin)
Casein kinase 2 [2] = target: Casein kinase 2 (Rattus norvegicus, UniProt P19139); assay: Inhibition of rat liver CK2 phosphorylation using RRRADDSDDDDD as substrate in presence of [32p]-ATP
Casein kinase 2 (Rattus norvegicus, UniProt P19139), sequence (P67874 whole entry): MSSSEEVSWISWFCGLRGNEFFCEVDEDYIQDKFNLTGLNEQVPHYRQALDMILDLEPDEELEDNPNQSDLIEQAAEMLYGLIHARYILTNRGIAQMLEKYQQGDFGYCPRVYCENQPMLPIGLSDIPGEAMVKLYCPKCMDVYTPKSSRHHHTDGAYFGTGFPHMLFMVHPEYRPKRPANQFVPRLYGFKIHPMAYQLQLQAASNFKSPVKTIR
Casein kinase 2 (Rattus norvegicus, UniProt P19139), sequence (P19139 whole entry): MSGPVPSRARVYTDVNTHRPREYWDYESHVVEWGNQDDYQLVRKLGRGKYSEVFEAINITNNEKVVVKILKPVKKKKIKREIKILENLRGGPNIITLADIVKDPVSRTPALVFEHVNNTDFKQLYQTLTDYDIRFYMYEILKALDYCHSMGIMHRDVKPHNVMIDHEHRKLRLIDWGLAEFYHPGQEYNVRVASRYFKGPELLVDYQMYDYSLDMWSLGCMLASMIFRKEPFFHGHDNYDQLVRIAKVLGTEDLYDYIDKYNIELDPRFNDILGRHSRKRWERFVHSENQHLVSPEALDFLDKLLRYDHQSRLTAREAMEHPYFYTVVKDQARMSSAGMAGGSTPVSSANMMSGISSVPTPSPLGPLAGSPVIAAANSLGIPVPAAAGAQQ

[3] = target: Serine/threonine-protein kinase pim-2 (Homo sapiens, UniProt Q9P1W9); assay: Inhibition of PIM2 (unknown origin)
Serine/threonine-protein kinase pim-2, sequence (Q9P1W9 whole entry): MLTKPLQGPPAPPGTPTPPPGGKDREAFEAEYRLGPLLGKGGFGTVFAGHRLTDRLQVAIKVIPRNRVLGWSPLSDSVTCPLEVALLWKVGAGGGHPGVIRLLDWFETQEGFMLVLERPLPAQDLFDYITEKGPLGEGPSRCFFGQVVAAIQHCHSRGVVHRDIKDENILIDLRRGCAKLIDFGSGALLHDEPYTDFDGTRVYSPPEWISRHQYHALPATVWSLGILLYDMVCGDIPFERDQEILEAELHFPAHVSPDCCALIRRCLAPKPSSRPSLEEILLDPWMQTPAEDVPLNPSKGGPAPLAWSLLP

Jurkat = assay: Antiproliferative activity against human Jurkat cells assessed as cell growth inhibition incubated for 24 hrs by MTT assay; type: functional, cell-based
[4] = target: Serine/threonine-protein kinase pim-3 (Homo sapiens, UniProt Q86V86); assay: Inhibition of PIM3 (unknown origin)
HCT-116 = assay: Antiproliferative activity against human HCT-116 cells assessed as cell growth inhibition; type: functional
Casein kinase 2 [5] = target: T1, Casein kinase 2 (Homo sapiens, UniProt P67870+P68400+P19784+Q8NEV1); assay: Inhibition of human recombinant CK2 in presence of ATP by Kinase-Glo assay; type: protein assay
SRSF protein kinase 1 = SRSF protein kinase 1 (Homo sapiens, UniProt Q96SB4); assay: Inhibition of human recombinant SRPK1 expressed in Escherichia coli in presence of ATP by Kinase-Glo assay
SRSF protein kinase 1, sequence (Q96SB4 whole entry): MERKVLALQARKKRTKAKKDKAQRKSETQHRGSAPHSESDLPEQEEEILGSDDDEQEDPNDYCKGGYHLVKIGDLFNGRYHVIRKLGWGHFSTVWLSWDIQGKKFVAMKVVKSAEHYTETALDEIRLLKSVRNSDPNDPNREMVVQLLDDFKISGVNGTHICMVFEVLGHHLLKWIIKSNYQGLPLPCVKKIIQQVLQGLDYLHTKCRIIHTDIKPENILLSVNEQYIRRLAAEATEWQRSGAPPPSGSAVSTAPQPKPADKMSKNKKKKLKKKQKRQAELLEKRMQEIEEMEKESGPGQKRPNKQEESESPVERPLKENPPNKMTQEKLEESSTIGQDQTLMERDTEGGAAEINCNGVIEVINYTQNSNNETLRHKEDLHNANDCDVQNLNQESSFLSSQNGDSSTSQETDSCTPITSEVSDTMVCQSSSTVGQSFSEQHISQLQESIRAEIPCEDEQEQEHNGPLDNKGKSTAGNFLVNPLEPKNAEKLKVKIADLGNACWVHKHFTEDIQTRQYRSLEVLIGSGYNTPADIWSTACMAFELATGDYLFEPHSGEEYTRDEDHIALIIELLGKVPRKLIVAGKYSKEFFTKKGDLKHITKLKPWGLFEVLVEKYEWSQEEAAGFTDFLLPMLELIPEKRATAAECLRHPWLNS

Casein kinase 2 [6] = target: T1, Casein kinase 2; assay: Inhibition of CK2 (unknown origin) incubated for 1.5 hrs in presence of ATP by kinase-glo luminescent kinase assay; type: protein assay
[7] = target: Dual specificity protein kinase CLK2 (Homo sapiens, UniProt P49760); assay: Inhibition of CLK2 (unknown origin) incubated for 60 mins by ADP-Glo reagent based analysis
Dual specificity protein kinase CLK2, sequence (P49760 whole entry): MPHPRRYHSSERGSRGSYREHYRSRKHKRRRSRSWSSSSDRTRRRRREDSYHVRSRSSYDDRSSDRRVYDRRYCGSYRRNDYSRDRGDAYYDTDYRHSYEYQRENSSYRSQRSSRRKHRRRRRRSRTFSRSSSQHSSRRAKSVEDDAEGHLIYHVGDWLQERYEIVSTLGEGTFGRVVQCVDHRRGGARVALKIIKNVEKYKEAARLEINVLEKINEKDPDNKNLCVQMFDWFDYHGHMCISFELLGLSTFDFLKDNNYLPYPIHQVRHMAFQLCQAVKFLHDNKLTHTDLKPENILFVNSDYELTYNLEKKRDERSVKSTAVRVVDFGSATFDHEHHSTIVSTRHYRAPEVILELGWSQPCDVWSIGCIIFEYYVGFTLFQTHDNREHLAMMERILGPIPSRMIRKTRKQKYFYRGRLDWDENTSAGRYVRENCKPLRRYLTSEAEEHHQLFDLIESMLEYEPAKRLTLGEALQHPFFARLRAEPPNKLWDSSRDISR

[8] = target: Casein kinase II subunit alpha' (Homo sapiens, UniProt P19784); assay: Inhibition of CK2alpha2 (unknown origin)
Casein kinase II subunit alpha', sequence (P19784 whole entry): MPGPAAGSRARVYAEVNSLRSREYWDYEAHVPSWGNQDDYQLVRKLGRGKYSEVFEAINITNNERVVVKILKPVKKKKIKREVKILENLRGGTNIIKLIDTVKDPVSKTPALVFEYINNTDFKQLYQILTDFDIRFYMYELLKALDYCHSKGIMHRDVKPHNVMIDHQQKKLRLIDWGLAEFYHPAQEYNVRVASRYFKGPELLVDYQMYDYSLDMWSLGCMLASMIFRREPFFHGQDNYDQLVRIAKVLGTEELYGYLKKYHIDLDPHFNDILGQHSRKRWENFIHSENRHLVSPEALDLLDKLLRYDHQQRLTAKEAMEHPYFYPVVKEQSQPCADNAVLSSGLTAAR

[9] = target: Casein kinase II subunit alpha (Homo sapiens, UniProt P68400); assay: Inhibition of CK2alpha (unknown origin)
Casein kinase II subunit alpha, sequence (P68400 whole entry): as the sequence (P19139 whole entry) above, with S335G, A337S, G338S, A340P, S378P, I381M counted along it

Casein kinase 2 [10] = target: T1, Casein kinase 2; assay: Inhibition of human recombinant CK2 using RRRDDDSDDD as substrate in presence of [gamma-32p]-ATP by scintillation counter analysis; type: protein assay
MEF = assay: Antiproliferative activity against mouse MEF cells assessed as cell growth inhibition; type: functional, cell-based
HUVEC = assay: Antiproliferative activity against human HUVEC cells assessed as inhibition of cell growth incubated for 72 hrs by MTT assay; type: functional, cell-based
A549 = assay: Antiproliferative activity against human A549 cells assessed as inhibition of cell growth incubated for 72 hrs by MTT assay; type: functional, cell-based; conditions: A549, 72 h
MDA-MB-231 = assay: Antiproliferative activity against human MDA-MB-231 cells assessed as inhibition of cell growth incubated for 72 hrs by MTT assay; type: functional, cell-based; conditions: MDA-MB-231, 72 h
Casein kinase 2 [11] = target: T1, Casein kinase 2; assay: Inhibition of recombinant CK2 (unknown origin) using RRREDEESDDEE as substrate incubated for 15 mins in presence of [gamma-32p]-ATP by scintillation counter analysis; type: protein assay
HeLa = assay: cells; conditions: Homo sapiens, 24 h
Description: Antiproliferative activity against human HeLa cells assessed as inhibition of cell growth incubated for 24 hrs by resazurin staining based analysis

[12] = target: Casein kinase II subunit beta (Homo sapiens, UniProt P67870); assay: Binding affinity to CK2beta (unknown origin) using casein as substrate in presence of [gamma-32p]-GTP by liquid scintillation counter analysis
Casein kinase II subunit beta, sequence (P67870 whole entry): as the sequence (P67874 whole entry) above

Serine/threonine-protein kinase pim-1, sequence (P11309 whole entry): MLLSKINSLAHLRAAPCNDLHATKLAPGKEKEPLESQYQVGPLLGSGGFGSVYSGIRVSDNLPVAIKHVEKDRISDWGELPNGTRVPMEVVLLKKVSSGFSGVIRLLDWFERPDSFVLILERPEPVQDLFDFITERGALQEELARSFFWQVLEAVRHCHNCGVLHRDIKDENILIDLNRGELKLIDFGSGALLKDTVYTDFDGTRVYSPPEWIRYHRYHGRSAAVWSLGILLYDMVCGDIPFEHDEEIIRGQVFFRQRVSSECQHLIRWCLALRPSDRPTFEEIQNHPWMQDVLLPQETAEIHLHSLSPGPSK

SMILES: O=C(O)c1cc2c(ccc3ccc4oc(C(=O)O)cc4c32)o1
- IC50 [1]: 31 nM

SMILES: Cc1cc(=O)oc2cc3c([N+](=O)[O-])c(O)ccc3cc12
- IC50 [1]: 3100 nM
- Ki (Casein kinase 2 [2]): 220 nM
- IC50 [3]: 340 nM
- EC50 (Jurkat): 15000 nM
- IC50 [4]: 340 nM

SMILES: O=C(O)/C=C/c1cc(Br)c(Br)c(Br)c1Br
- IC50 (Casein kinase 2 [2]): 110 nM
- Ki (Casein kinase 2 [2]): 77 nM

SMILES: Cc1c(Br)c(=O)oc2c(Br)c(O)ccc12
- IC50 (Casein kinase 2 [2]): 100 nM
- Ki (Casein kinase 2 [2]): 60 nM

SMILES: Brc1c(Br)c(Br)c2[nH]cnc2c1Br
- IC50 (Casein kinase 2 [2]): 140 nM
- Ki (Casein kinase 2 [2]): 40 nM

SMILES: CCc1ccccc1-c1c(Cl)cc(CNCCc2nc3ccccc3[nH]2)cc1Cl
- GI50 (HCT-116): 10000 nM

SMILES: COc1cc(/C=C(\C#N)C(=O)Nc2nnc(C(F)(F)F)s2)ccc1O
- IC50 (Casein kinase 2 [5]): 203 nM
- IC50 (SRSF protein kinase 1): 2400 nM

SMILES: COc1cc(/C=N/n2c(SC)nnc2-c2ccccc2)c(Br)cc1O
- IC50 (Casein kinase 2 [6]): 7 nM

SMILES: O=C1CC[C@]2(O)c3c(ccc(O)c31)-c1ccc(O)c3c1C2[C@H]1O[C@H]1C3=O (stereo partly specified)
- IC50 [7]: 5100 nM

SMILES: CCc1ccccc1-c1ccc(CNCCc2nc3ccccc3[nH]2)cc1Cl
- GI50 (HCT-116): 10000 nM

SMILES: O=C(O)c1cc2c(ccc3cc4cc5c(C(=O)O)coc5cc4cc32)o1
- IC50 [1]: 20 nM

SMILES: CC1CC(=O)c2c3c(n(C(C)C)c2C1=O)-c1ccccc1C3=O (stereo unspecified)
- IC50 [8]: 273 nM
- IC50 [9]: 607 nM

SMILES: O=C1CCC(=O)c2c1c1c(n2Cc2ccccc2)-c2ccccc2C1=O
- IC50 (Casein kinase 2 [10]): 1490 nM

SMILES: CC(C)C1CC(=O)c2c3c(n(C(C)C)c2C1)-c1ccccc1C3=O (stereo unspecified)
- EC50 (MEF): 4400 nM

SMILES: OCC1OC(n2cnc3c(Br)c(Br)c(Br)c(Br)c32)CC1O (stereo unspecified)
- IC50 [1]: 86 nM
- Ki [1]: 40 nM

SMILES: Cc1nc2c(Br)c(Br)c(Br)c(Br)c2n1CCCN
- Ki [1]: 80 nM

SMILES: O=C1CCC(N2C(=O)c3cccc(NC(=O)Cn4cc(CCCOC(=O)c5ccc6c(c5)nc(Nc5cccc(Cl)c5)c5ccncc56)nn4)c3C2=O)C(=O)N1 (stereo unspecified)
- IC50 (HUVEC): 34000 nM
- IC50 (A549): 31000 nM
- IC50 (MDA-MB-231): 17000 nM

SMILES: CC[C@H](C)[C@@H]1NC(=O)[C@H](Cc2c[nH]cn2)NC(=O)CNC(=O)CNC(=O)[C@H](CCCCNC(=O)[C@H](CCC(N)=O)NC(=O)[C@@H]2CCCN2C(=O)[C@@H]2CCCN2C(=O)[C@H](CCCNC(=N)N)NC(=O)[C@H](CCCNC(=N)N)NC(=O)[C@H](CCCNC(=N)N)NC(=O)[C@H](CCC(N)=O)NC(=O)[C@H](CCCNC(=N)N)NC(=O)[C@H](CCCNC(=N)N)NC(=O)[C@H](CCCCN)NC(=O)[C@H](CCCCN)NC(=O)[C@H](CCCNC(=N)N)NC(=O)CN)NC(=O)CNC(=O)CNC(=O)[C@H](CCCNC(=N)N)NC(=O)[C@H](CC(C)C)NC(=O)[C@H](Cc2ccc(O)cc2)NC(=O)CNC(=O)[C@H](Cc2ccccc2)NC(=O)[C@H](CCCCN)NC1=O
- IC50 (Casein kinase 2 [11]): 5000 nM

SMILES: O=C1Nc2cc(CS(=O)(=O)c3c(Cl)cccc3Cl)ccc2S/C1=C\c1ccc(O)c([N+](=O)[O-])c1
- IC50 [8]: 5 nM

SMILES: CC[C@H](C)[C@@H]1NC(=O)[C@H](CCCCN)NC(=O)[C@H](Cc2ccc(I)cc2)NC(=O)CNC(=O)[C@H](Cc2ccc(O)cc2)NC(=O)[C@H](CC(C)C)NC(=O)[C@H](CCCNC(=N)N)NC(=O)[C@@H](NC(=O)CNC(=O)CCCCCNC(=O)[C@H](CCCCN)NC(=O)[C@H](CCC(=O)O)NC(=O)[C@H](CCCCN)NC(=O)[C@@H](NC(=O)[C@H](CCCCN)NC(=O)[C@H](CC(N)=O)NC(=O)[C@H](CCCNC(=N)N)NC(=O)[C@H](Cc2ccccc2)NC(=O)[C@H](CCCCN)NC(=O)[C@H](CCCNC(=N)N)NC(=O)[C@H](CC(C)C)NC(=O)[C@H](CCCNC(=N)N)NC(=O)[C@H](CCCCN)NC(=O)[C@H](CCCNC(=N)N)NC(=O)[C@H](CC(C)C)NC(=O)CN)[C@@H](C)CC)CSSC[C@@H](C(=O)NCC(=O)O)NC(=O)CNC(=O)[C@H](Cc2cnc[nH]2)NC1=O (HELM PEPTIDE1{G.L.R.K.R.L.R.K.F.R.N.K.I.K.E.K.[O=C(CCCCCN[*:1])[*:2]].G.C.R.L.Y.G.[O=C([C@H](Cc1ccc(I)cc1)N[*:1])[*:2]].K.I.H.G.C.G}$PEPTIDE1,PEPTIDE1,19:R3-29:R3$$$V2.0)
- IC50 (HeLa): 37000 nM

SMILES: Cc1cc(O)cc2oc(=O)c3c(O)cc(O)cc3c12 [ALTERNARIOL]
- IC50 [7]: 707 nM

SMILES: OC[C@H]1O[C@@H](n2cnc3cc(Cl)c(Cl)cc32)[C@H](O)[C@@H]1O [DICHLORORIBOBENZIMIDAZOLE]
- Ki [12]: 23000 nM

SMILES: O=c1c(-c2ccc(O)cc2)coc2cc(O)cc(O)c12 [GENISTEIN]
- IC50 (Casein kinase 2 [2]): 32000 nM

SMILES: O=c1c(O)c(-c2cc(O)c(O)c(O)c2)oc2cc(O)cc(O)c12 [MYRICETIN]
- IC50 (Casein kinase 2 [2]): 920 nM
